Tests used:
[1] = target: T1, Prostaglandin G/H synthase 2 (Homo sapiens) (UniProt P35354); assay: Selectivity interaction (CEREP Wide Ligand screening panel (ion channels, receptors, enzymes)) EUB0000304b PTGS2; details: at 10 µM
T1 sequence (whole entry): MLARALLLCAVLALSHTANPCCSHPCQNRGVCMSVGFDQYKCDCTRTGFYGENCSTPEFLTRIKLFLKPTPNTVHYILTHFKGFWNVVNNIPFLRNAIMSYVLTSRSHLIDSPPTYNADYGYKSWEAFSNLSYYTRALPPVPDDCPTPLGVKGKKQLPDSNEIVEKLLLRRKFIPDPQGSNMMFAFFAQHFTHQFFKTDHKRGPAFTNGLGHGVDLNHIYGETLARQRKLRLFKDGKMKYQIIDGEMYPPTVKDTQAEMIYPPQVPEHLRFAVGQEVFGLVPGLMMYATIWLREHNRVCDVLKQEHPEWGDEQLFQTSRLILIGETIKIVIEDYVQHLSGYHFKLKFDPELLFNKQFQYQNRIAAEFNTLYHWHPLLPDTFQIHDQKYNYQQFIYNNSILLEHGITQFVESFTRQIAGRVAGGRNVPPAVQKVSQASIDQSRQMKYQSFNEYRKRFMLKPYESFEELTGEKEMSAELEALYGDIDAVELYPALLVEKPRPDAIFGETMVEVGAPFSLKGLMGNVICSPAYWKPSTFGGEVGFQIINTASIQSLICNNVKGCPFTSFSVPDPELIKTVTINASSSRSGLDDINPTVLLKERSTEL

[2] = target: 5-hydroxytryptamine receptor 2B (Homo sapiens, UniProt P41595); assay: Selectivity interaction (CEREP Wide Ligand screening panel (ion channels, receptors, enzymes)) EUB0000304b HTR2B; details: at 10 µM
[3] = target: Adenosine receptor A2b (Homo sapiens) (UniProt P29275); assay: Selectivity interaction (CEREP Wide Ligand screening panel (ion channels, receptors, enzymes)) EUB0000304b ADORA2B; details: at 10 µM
[4] = target: Gastrin/cholecystokinin type B receptor (Homo sapiens) (UniProt P32239); assay: Selectivity interaction (CEREP Wide Ligand screening panel (ion channels, receptors, enzymes)) EUB0000304b CCKBR; details: at 10 µM
Mu-type opioid receptor = Mu-type opioid receptor (Homo sapiens, UniProt P35372); assay: Selectivity interaction (CEREP Wide Ligand screening panel (ion channels, receptors, enzymes)) EUB0000304b OPRM1; details: at 10 µM
Chain of Mu-type opioid receptor (P35372 whole entry): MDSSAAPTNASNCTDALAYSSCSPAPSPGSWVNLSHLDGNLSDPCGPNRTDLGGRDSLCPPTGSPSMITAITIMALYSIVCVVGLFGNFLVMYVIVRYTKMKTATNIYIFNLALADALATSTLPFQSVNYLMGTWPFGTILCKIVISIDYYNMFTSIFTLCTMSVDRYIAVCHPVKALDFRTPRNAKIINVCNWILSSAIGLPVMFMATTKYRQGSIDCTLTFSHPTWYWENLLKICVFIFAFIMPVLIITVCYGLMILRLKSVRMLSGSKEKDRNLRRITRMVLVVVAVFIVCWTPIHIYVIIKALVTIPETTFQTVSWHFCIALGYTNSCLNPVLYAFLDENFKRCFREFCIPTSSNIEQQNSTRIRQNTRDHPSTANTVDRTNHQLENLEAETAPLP

[5] = target: Kappa-type opioid receptor (Homo sapiens, UniProt P41145); assay: Selectivity interaction (CEREP Wide Ligand screening panel (ion channels, receptors, enzymes)) EUB0000304b OPRK1; details: at 10 µM
Chain of Kappa-type opioid receptor (P41145 whole entry): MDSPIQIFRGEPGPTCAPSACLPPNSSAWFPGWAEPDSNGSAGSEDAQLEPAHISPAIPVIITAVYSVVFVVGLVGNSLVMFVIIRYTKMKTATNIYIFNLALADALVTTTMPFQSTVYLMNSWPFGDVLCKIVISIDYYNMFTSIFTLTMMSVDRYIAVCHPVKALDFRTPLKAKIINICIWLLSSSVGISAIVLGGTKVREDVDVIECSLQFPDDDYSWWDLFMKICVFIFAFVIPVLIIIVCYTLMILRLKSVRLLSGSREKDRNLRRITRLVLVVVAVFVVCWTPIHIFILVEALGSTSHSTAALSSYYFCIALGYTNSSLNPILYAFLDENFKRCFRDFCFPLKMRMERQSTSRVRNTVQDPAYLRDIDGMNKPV

[6] = target: High affinity choline transporter 1 (Homo sapiens) (UniProt Q9GZV3); assay: Selectivity interaction (CEREP Wide Ligand screening panel (ion channels, receptors, enzymes)) EUB0000304b SLC5A7; details: at 10 µM
Chain of High affinity choline transporter 1 (Homo sapiens) (Q9GZV3 whole entry): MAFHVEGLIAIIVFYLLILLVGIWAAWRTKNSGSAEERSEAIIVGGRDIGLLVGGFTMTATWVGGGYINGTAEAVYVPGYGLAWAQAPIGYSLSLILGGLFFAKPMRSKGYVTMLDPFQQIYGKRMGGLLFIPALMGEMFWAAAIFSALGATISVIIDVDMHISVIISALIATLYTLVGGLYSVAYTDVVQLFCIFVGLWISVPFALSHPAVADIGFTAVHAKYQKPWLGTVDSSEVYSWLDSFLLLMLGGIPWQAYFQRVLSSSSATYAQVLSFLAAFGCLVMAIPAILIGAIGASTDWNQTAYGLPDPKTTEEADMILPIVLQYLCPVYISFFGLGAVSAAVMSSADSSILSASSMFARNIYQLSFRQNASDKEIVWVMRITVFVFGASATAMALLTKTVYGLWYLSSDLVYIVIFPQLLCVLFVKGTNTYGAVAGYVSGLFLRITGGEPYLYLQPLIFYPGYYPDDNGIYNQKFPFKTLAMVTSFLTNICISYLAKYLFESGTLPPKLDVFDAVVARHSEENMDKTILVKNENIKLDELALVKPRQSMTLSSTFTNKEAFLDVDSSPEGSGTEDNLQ

[7] = target: Sodium channel protein type 2 subunit alpha (Homo sapiens, UniProt Q99250); assay: Selectivity interaction (CEREP Wide Ligand screening panel (ion channels, receptors, enzymes)) EUB0000304b SCN2A; details: at 10 µM
[8] = target: Substance-P receptor (Homo sapiens) (UniProt P25103); assay: Selectivity interaction (CEREP Wide Ligand screening panel (ion channels, receptors, enzymes)) EUB0000304b TACR1; details: at 10 µM
[9] = target: Melatonin receptor type 1B (Homo sapiens) (UniProt P49286); assay: Selectivity interaction (CEREP Wide Ligand screening panel (ion channels, receptors, enzymes)) EUB0000304b MTNR1B; details: at 10 µM
Chain of Melatonin receptor type 1B (Homo sapiens) (P49286 whole entry): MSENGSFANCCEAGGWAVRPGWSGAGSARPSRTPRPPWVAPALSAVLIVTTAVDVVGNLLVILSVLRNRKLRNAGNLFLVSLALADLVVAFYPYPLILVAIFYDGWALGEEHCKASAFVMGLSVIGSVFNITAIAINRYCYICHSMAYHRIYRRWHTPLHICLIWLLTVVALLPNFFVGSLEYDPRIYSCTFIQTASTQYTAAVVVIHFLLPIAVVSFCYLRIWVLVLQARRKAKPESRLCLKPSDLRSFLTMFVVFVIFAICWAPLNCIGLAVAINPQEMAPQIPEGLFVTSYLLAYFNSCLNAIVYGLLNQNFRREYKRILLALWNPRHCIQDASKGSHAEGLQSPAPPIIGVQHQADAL

[10] = target: Muscarinic acetylcholine receptor M3 (Homo sapiens) (UniProt P20309); assay: Selectivity interaction (CEREP Wide Ligand screening panel (ion channels, receptors, enzymes)) EUB0000304b CHRM3; details: at 10 µM
[11] = target: T2, Gamma-aminobutyric acid receptor subunit alpha-1 (Homo sapiens, UniProt P14867); assay: Selectivity interaction (GPCR panel (PDSP screen)) EUB0000304b GABRA1
T2 sequence (P14867 whole entry): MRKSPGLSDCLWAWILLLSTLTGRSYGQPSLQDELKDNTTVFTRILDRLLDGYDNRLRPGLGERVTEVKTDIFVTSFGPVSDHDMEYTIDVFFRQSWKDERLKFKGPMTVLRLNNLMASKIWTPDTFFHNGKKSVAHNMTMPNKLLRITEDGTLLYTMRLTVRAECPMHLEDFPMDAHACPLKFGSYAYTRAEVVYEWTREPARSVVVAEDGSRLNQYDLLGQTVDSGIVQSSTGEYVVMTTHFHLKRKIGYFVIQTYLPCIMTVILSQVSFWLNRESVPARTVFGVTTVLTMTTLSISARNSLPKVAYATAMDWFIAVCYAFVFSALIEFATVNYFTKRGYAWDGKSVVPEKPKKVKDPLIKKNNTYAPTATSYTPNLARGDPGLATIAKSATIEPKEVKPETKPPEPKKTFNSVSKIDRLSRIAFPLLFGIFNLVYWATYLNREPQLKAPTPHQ

D(3) dopamine receptor = D(3) dopamine receptor (Homo sapiens, UniProt P35462); assay: Selectivity interaction (GPCR panel (PDSP screen)) EUB0000351a DRD3; details: at 10 µM
Chain of D(3) dopamine receptor (P35462 whole entry): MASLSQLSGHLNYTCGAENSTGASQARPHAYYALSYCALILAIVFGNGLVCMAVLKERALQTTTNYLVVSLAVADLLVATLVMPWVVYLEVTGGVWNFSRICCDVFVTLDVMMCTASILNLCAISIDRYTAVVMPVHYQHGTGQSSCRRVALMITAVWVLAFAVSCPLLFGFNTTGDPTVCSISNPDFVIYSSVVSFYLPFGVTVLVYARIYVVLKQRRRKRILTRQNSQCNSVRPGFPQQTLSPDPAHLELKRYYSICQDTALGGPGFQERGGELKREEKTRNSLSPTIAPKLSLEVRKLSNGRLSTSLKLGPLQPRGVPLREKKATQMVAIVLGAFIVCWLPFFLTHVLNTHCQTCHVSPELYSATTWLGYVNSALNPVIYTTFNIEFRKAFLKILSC

[12] = target: T3, Serine/threonine-protein kinase TAO3 (Homo sapiens) (UniProt Q9H2K8); assay: Selectivity interaction (KinomeScan (DiscoverX)) EUB0000351a TAOK3; details: at 1 µM
T3 sequence (whole entry): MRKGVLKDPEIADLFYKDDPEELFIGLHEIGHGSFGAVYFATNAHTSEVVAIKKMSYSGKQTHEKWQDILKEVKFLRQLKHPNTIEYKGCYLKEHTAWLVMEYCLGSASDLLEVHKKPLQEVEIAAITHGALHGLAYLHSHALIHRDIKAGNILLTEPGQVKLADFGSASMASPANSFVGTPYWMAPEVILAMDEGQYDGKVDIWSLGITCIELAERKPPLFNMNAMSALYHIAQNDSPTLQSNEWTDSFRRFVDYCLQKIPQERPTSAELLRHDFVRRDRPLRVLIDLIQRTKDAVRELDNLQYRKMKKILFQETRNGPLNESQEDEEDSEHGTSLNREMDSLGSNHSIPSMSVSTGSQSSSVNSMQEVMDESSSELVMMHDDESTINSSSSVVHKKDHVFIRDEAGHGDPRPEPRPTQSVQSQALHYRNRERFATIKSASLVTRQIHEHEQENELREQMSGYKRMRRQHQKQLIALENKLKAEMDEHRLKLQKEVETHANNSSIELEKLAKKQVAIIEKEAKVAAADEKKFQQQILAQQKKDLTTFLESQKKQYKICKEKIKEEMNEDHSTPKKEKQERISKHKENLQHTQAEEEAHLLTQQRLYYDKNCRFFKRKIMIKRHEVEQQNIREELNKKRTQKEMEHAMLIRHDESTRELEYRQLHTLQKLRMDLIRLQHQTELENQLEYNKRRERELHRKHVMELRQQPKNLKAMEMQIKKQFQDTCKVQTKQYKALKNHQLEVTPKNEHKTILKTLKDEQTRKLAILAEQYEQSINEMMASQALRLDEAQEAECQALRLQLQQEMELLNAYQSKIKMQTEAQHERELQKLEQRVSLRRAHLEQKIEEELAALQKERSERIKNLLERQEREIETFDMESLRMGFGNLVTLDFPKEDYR

[13] = target: cGMP-inhibited 3',5'-cyclic phosphodiesterase 3A (Homo sapiens, UniProt Q14432); assay: Selectivity interaction (CEREP ligand profiling ) EUB0000351a PDE3A
Chain of cGMP-inhibited 3',5'-cyclic phosphodiesterase 3A (Q14432 whole entry): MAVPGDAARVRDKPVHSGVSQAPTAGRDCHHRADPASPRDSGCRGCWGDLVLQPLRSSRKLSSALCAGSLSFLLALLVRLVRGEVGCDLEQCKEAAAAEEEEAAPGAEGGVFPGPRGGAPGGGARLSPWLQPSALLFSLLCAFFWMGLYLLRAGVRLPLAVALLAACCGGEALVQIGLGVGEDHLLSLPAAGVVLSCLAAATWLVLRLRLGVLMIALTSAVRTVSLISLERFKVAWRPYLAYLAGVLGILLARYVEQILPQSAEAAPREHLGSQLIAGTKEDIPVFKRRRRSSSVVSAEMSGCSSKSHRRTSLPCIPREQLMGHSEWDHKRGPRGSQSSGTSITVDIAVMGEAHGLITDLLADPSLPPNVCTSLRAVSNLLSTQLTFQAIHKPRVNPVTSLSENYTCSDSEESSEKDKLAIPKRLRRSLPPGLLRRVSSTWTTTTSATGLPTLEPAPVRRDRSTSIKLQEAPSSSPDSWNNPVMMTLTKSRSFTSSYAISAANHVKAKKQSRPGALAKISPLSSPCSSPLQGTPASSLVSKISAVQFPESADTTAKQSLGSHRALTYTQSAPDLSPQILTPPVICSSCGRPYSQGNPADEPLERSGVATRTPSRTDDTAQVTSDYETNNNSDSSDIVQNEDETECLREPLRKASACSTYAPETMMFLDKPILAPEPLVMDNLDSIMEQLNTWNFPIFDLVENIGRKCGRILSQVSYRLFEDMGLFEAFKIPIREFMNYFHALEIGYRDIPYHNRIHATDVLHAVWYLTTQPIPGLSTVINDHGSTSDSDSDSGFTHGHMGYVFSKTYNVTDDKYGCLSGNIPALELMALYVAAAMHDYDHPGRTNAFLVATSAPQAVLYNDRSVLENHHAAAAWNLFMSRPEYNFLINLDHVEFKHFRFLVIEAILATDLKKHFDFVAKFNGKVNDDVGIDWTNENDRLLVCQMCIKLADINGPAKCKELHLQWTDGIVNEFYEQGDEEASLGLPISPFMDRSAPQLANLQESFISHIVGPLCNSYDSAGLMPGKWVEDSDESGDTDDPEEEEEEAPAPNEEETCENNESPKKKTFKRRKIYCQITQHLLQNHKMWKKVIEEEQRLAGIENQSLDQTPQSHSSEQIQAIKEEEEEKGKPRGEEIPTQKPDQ

[14] = target: 5'-AMP-activated protein kinase catalytic subunit alpha-2 (Homo sapiens) (UniProt P54646); assay: Selectivity interaction (KinomeScan (DiscoverX)) EUB0000351a PRKAA2; details: at 1 µM
Chain of 5'-AMP-activated protein kinase catalytic subunit alpha-2 (Homo sapiens) (P54646 whole entry, looked up, canonical isoform): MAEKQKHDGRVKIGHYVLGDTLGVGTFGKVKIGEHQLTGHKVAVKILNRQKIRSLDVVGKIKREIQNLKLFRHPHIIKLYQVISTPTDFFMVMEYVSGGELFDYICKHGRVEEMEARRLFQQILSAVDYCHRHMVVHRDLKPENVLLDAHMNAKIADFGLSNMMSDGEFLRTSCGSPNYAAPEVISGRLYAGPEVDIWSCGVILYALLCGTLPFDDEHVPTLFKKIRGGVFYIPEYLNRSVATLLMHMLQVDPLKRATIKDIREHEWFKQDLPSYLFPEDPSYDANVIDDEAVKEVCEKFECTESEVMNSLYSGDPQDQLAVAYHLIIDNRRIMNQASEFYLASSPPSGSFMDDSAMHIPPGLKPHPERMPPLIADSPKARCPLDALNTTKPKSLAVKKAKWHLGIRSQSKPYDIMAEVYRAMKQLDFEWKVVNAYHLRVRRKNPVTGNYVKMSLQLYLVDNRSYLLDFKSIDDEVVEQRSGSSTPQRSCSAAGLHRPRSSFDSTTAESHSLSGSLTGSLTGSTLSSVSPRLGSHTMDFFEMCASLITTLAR

[15] = target: Phosphatidylinositol 4,5-bisphosphate 3-kinase catalytic subunit alpha isoform (Homo sapiens, UniProt P42336); assay: Selectivity interaction (KinomeScan (DiscoverX)) EUB0000351a PIK3CA; details: at 1 µM
Chain of Phosphatidylinositol 4,5-bisphosphate 3-kinase catalytic subunit alpha isoform (P42336 whole entry, canonical isoform): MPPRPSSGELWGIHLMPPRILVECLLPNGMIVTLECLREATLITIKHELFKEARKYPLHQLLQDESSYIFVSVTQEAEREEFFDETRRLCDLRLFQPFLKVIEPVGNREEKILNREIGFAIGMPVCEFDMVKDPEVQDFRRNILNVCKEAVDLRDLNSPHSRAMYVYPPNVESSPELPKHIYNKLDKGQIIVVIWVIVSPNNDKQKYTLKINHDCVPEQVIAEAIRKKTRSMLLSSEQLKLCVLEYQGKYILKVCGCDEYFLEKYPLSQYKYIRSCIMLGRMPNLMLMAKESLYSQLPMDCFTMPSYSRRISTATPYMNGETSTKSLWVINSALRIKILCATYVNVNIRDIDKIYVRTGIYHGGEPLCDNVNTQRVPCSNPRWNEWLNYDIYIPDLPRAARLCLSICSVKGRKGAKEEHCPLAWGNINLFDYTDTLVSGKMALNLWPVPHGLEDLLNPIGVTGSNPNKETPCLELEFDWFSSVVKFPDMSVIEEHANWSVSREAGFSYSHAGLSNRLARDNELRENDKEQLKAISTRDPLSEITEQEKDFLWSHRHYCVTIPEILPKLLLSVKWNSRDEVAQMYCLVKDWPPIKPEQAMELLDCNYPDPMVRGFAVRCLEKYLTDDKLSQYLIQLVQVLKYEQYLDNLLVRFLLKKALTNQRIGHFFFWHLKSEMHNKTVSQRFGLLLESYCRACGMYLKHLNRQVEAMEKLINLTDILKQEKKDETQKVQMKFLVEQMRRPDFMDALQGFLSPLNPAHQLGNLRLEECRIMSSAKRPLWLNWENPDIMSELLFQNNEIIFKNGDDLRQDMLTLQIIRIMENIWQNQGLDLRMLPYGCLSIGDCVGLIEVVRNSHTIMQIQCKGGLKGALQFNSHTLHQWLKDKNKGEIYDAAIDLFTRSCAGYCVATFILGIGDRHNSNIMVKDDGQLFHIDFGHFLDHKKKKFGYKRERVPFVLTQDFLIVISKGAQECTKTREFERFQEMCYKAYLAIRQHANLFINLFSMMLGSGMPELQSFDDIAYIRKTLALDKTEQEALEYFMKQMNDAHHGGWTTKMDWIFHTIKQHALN

## C[C@H](c1ccc(F)cc1)N(Cc1cccc(C(=O)O)c1)C(=O)c1cnc2ccccc2c1 [PF-05105679]
[1]
  % of effect: 21%
[2]
  % of effect: 26%
[3]
  % of effect: 21%
[4]
  % of effect: 35%
Mu-type opioid receptor
  % of effect: 25%
[5]
  % of effect: 20%
[6]
  % of effect: 22%
[7]
  % of effect: 32%
[8]
  % of effect: 18%
[9]
  % of effect: 32%
[10]
  % of effect: 21%
[11]
  Ki: 1.02 µM

## COc1ccc2cc(OCC3(C(=O)O)CN(C(=O)c4ccc(F)cc4)C3)ccc2c1 [PF-04418948]
D(3) dopamine receptor
  % of inhibition: 33%
[12]
  % of control: 35%
[13]
  IC50: 3.5 µM
[14]
  % of control: 28%
[15]
  % of control: 42%

Source: ChEMBL document CHEMBL5212743, “Selectivity Literature for EUbOPEN Chemogenomics Library wave 3” (2023)
